Values quoted from earlier work as cited in patent US20250099360A1 (Goodier Cosmetics, LLC, priority 2023, published 2025).

System: UV-B-induced lipid peroxidation
Conditions: UV-B radiation

## CCCCCCCCCCCCCCCC(=O)OC[C@H](O)[C@H]1OC(=O)C(O)=C1O [ascorbyl palmitate]
  effect on UV-B-induced lipid peroxidation: promotes UV-B-induced lipid peroxidation
